In ChEMBL document CHEMBL3286339, “Synthesis and in vivo SAR study of indolin-2-one-based multi-targeted inhibitors as potential anticancer agents” (Eur J Med Chem, 2014):
Activity calls are given as the source filed them. No cut-off for these calls is given here.

Assays:
Mus musculus [1] = experiment: Toxicity in BALB/c nude mouse xenografted with human HT-29 cells assessed as mortality at 80 mg/kg/day administered qd measured on day 21; format: organism-based; conditions: in vivo
[2] = Antiproliferative activity against human HK2 cells after 72 hrs by MTT assay; format: cell-based; conditions: HK-2, 72 h
Mus musculus [3] = experiment: Toxicity in BALB/c nude mouse xenografted with human HT-29 cells assessed as severe weight loss at 80 mg/kg/day administered qd measured after 12 to 15 days; format: organism-based; conditions: in vivo
TT = experiment: Antiproliferative activity against human TT cells pretreated for 72 hrs followed by compound-washout measured after 72 hrs by MTT assay; format: functional, cell-based
HT-29 = experiment: Antitumor activity against human HT-29 cells xenografted in BALB/c nude mouse assessed as tumor growth inhibition at 80 mg/kg/day administered qd measured up to day 21 relative to control; format: functional
[4] = Antiproliferative activity against human MV411 cells after 48 hrs by MTT assay; format: functional, cell-based; conditions: MV4-11, 48 h
NCI-H526 = experiment: Antiproliferative activity against human NCI-H526 cells after 72 hrs by MTT assay; format: functional, cell-based; conditions: NCI-H526, 72 h
[5] = Antiproliferative activity against human LO2 cells after 72 hrs by MTT assay; format: cell-based; conditions: L02, 72 h
[6] = Antiproliferative activity against human Bel7402 cells after 72 hrs by MTT assay; format: functional, cell-based; conditions: Bel-7402, 72 h
Mus musculus [7] = experiment: Toxicity in BALB/c nude mouse xenografted with human HT-29 cells assessed as change in body weight at 80 mg/kg/day administered qd relative to control; format: organism-based; conditions: in vivo
Mus musculus [8] = experiment: Toxicity in BALB/c nude mouse xenografted with human NCI-H460 cells assessed as change in body weight at 40 mg/kg/day administered qd relative to control; format: organism-based; conditions: in vivo
NCI-H460 [9] = experiment: Antitumor activity against human NCI-H460 cells xenografted in BALB/c nude mouse assessed as tumor growth inhibition at 40 mg/kg/day administered qd measured up to day 21 relative to control; format: functional
NCI-H460 [10] = experiment: Antiproliferative activity against human NCI-H460 cells after 72 hrs by MTT assay; format: functional, cell-based; conditions: NCI-H460, 72 h
[11] = Antiproliferative activity against human NCI-H3122 cells after 72 hrs by MTT assay; format: functional, cell-based; conditions: NCI-H3122, 72 h
Mus musculus [12] = experiment: Toxicity in BALB/c nude mouse xenografted with human HT-29 cells assessed as severe weight loss at 80 mg/kg/day administered qd; format: organism-based; conditions: in vivo
Mus musculus [13] = experiment: Toxicity in BALB/c nude mouse xenografted with human NCI-H460 cells assessed as bloody stool at 40 mg/kg/day administered qd; format: organism-based; conditions: in vivo
Mus musculus [14] = experiment: Toxicity in BALB/c nude mouse xenografted with human NCI-H460 cells assessed as hematuria at 40 mg/kg/day administered qd; format: organism-based; conditions: in vivo
Mus musculus [15] = experiment: Toxicity in BALB/c nude mouse xenografted with human HT-29 cells assessed as bloody stool at 80 mg/kg/day administered qd measured up to day 21; format: organism-based; conditions: in vivo
Aorta [16] = experiment: Inhibition of micrangium generation in Sprague-Dawley rat aortic ring at 0.2 ug/ml after 6 days by inverted microscopic analysis; format: functional, tissue-based
Mus musculus [17] = experiment: Toxicity in BALB/c nude mouse xenografted with human HT-29 cells assessed as hematuria at 80 mg/kg/day administered qd measured up to day 21; format: organism-based; conditions: in vivo
Aorta [18] = experiment: Antiangiogenic activity in Sprague-Dawley rat aortic ring at 0.2 ug/ml after 6 days by inverted microscopic analysis; format: functional, tissue-based
Mus musculus [19] = experiment: Toxicity in BALB/c nude mouse xenografted with human NCI-H460 cells assessed as severe weight loss at 40 mg/kg/day administered qd; format: organism-based; conditions: in vivo
Mus musculus [20] = experiment: Toxicity in BALB/c nude mouse xenografted with human NCI-H460 cells assessed as severe weight loss at 40 mg/kg/day administered qd measured after 9 days; format: organism-based; conditions: in vivo, 216 h
Mus musculus [21] = experiment: Toxicity in BALB/c nude mouse xenografted with human NCI-H460 cells assessed as bloody stool at 40 mg/kg/day administered qd measured after 9 days; format: organism-based; conditions: in vivo, 216 h
Mus musculus [22] = experiment: Toxicity in BALB/c nude mouse xenografted with human NCI-H460 cells assessed as lethargic behavior at 40 mg/kg/day administered qd; format: organism-based; conditions: in vivo
Mus musculus [23] = experiment: Toxicity in BALB/c nude mouse xenografted with human NCI-H460 cells assessed as weakness at 40 mg/kg/day administered qd; format: organism-based; conditions: in vivo
Mus musculus [24] = experiment: Toxicity in BALB/c nude mouse xenografted with human NCI-H460 cells assessed as mortality at 40 mg/kg/day administered qd measured on day 15; format: organism-based; conditions: in vivo
Mus musculus [25] = experiment: Toxicity in BALB/c nude mouse xenografted with human HT-29 cells assessed as lethargic behavior at 80 mg/kg/day administered qd; format: organism-based; conditions: in vivo
Mus musculus [26] = experiment: Toxicity in BALB/c nude mouse xenografted with human HT-29 cells assessed as mortality at 80 mg/kg/day administered qd measured on day 15; format: organism-based; conditions: in vivo
Mus musculus [27] = experiment: Toxicity in BALB/c nude mouse xenografted with human HT-29 cells assessed as weakness at 80 mg/kg/day administered qd; format: organism-based; conditions: in vivo
Mus musculus [28] = experiment: Toxicity in BALB/c nude mouse xenografted with human HT-29 cells assessed as severe weight loss at 80 mg/kg/day administered qd measured after 9 days; format: organism-based; conditions: in vivo, 216 h
Mus musculus [29] = experiment: Toxicity in BALB/c nude mouse xenografted with human HT-29 cells assessed as development of diarrhea at 80 mg/kg/day administered qd; format: organism-based; conditions: in vivo
Mus musculus [30] = experiment: Toxicity in BALB/c nude mouse xenografted with human HT-29 cells assessed as severe weight loss at 80 mg/kg/day administered qd measured after 6 days; format: organism-based; conditions: in vivo, 144 h
Mus musculus [31] = experiment: Toxicity in BALB/c nude mouse xenografted with human HT-29 cells assessed as weight loss at 80 mg/kg/day administered qd measured up to day 21; format: organism-based; conditions: in vivo

With `CCN(CC)CCNC(=O)c1c(C)[nH]c(/C=C2\C(=O)Nc3ccc(F)cc32)c1C` [SUNITINIB] the Activity (Mus musculus [1]) was “Toxic”, the IC50 [2] was 5850 nM and the Activity (Mus musculus [3]) was “Toxic”. The IC50 (TT) was 40 nM, the Activity (HT-29) was “Active” and the Activity (HT-29; record 2) was 88.9%. The IC50 [4] was 3 nM, the IC50 (NCI-H526) was 1010 nM and the IC50 [5] was 19900 nM. It also gave an IC50 [6] of 2670 nM, an Activity (Mus musculus [7]) of -24.1% and an Activity (Mus musculus [8]) of 12.3%. The TGI (NCI-H460 [9]) was “Active”, the IC50 (NCI-H460 [10]) was 4310 nM and the IC50 [11] was 830 nM.
For `CCN1CCN(CCC(=O)Nc2c(C)[nH]c(/C=C3\C(=O)Nc4ccc(F)cc43)c2C)CC1`, the Activity (Mus musculus [12]) was “Non-toxic”, the Activity (Mus musculus [13]) was “Non-toxic” and the Activity (Mus musculus [14]) was “Non-toxic”. For the same compound, the Activity (Mus musculus [15]) was “Non-toxic”, the inhibition (Aorta [16]) was “Active” and the Activity (HT-29) was “Active”. For the same compound, the Activity (Mus musculus [17]) was “Non-toxic”, the inhibition (Aorta [18]) was “Active” and the TGI (NCI-H460 [9]) was “Active”. The Activity (Mus musculus [19]) was “Non-toxic”.
With `Cc1[nH]c(/C=C2\C(=O)Nc3ccc(F)cc32)c(C)c1NC(=O)CN1CCN(C)CC1` the Activity (Mus musculus [20]) was “Toxic”, the Activity (Mus musculus [21]) was “Toxic” and the Activity (Mus musculus [22]) was “Toxic”. The inhibition (Aorta [16]) was “Active”, the Activity (Mus musculus [23]) was “Toxic” and the Activity (Mus musculus [24]) was “Toxic”. The inhibition (Aorta [18]) was “Active”.
With `CCN(CC)C1CCN(C(=O)c2c(C)[nH]c(/C=C3\C(=O)Nc4ccc(F)cc43)c2C)CC1` the Activity (Mus musculus [25]) was “Toxic”, the inhibition (Aorta [16]) was “Active” and the Activity (HT-29) was “Active”. For the same compound, the Activity (Mus musculus [26]) was “Toxic”, the inhibition (Aorta [18]) was “Active” and the Activity (Mus musculus [27]) was “Toxic”. For the same compound, the Activity (Mus musculus [28]) was “Toxic”, the Activity (Mus musculus [29]) was “Toxic” and the Activity (Mus musculus [30]) was “Toxic”.
With `CCN(CC)CCC(=O)Nc1c(C)[nH]c(/C=C2\C(=O)Nc3ccc(Br)cc32)c1C` the Activity (Mus musculus [12]) was “Toxic”, the inhibition (Aorta [16]) was “Active” and the Activity (HT-29) was “Active”. For the same compound, the inhibition (Aorta [18]) was “Active”.
In the case of `Cc1[nH]c(/C=C2\C(=O)Nc3ccc(F)cc32)c(C)c1C(=O)N1CCN(CCO)CC1`, the inhibition (Aorta [16]) is reported as “Active”, the Activity (HT-29) is reported as “inactive” and the inhibition (Aorta [18]) is reported as “Active”.
For `CCN(CC)CCC(=O)Nc1c(C)[nH]c(/C=C2\C(=O)Nc3ccc(F)cc32)c1C`, the inhibition (Aorta [16]) was “Active”, the Activity (HT-29) was “Active” and the Activity (Mus musculus [26]) was “Toxic”. The inhibition (Aorta [18]) was “Active” and the Activity (Mus musculus [30]) was “Toxic”.
For `CCN1CCN(C(=O)c2c(C)[nH]c(/C=C3\C(=O)Nc4ccc(F)cc43)c2C)CC1`, the Activity (Mus musculus [31]) was “Non-toxic”, the Activity (Mus musculus [15]) was “Non-toxic” and the inhibition (Aorta [16]) was “Active”. For the same compound, the Activity (HT-29) was “Active”, the Activity (Mus musculus [17]) was “Non-toxic” and the inhibition (Aorta [18]) was “Active”.
For `Cc1[nH]c(/C=C2\C(=O)Nc3ccc(F)cc32)c(C)c1NC(=O)/C=C/CN(C)C`, the inhibition (Aorta [16]) was “Active”, the Activity (HT-29) was “inactive” and the inhibition (Aorta [18]) was “Active”.
